Test results as given in BindingDB's records for doi:10.1016/j.bmc.2019.115235 (Shandong University, 2020).

Experiments:
[1] = molecular target: T1, Hypoxia-inducible factor 1-alpha (Homo sapiens, UniProt Q16665); assay: […] of HIF1 in human T47D cells
[2] = molecular target: T1, Hypoxia-inducible factor 1-alpha; assay: […] of HIF1 in human T47D cells after 30 mins by luciferase reporter gene assay

T1 sequence (Q16665 whole entry): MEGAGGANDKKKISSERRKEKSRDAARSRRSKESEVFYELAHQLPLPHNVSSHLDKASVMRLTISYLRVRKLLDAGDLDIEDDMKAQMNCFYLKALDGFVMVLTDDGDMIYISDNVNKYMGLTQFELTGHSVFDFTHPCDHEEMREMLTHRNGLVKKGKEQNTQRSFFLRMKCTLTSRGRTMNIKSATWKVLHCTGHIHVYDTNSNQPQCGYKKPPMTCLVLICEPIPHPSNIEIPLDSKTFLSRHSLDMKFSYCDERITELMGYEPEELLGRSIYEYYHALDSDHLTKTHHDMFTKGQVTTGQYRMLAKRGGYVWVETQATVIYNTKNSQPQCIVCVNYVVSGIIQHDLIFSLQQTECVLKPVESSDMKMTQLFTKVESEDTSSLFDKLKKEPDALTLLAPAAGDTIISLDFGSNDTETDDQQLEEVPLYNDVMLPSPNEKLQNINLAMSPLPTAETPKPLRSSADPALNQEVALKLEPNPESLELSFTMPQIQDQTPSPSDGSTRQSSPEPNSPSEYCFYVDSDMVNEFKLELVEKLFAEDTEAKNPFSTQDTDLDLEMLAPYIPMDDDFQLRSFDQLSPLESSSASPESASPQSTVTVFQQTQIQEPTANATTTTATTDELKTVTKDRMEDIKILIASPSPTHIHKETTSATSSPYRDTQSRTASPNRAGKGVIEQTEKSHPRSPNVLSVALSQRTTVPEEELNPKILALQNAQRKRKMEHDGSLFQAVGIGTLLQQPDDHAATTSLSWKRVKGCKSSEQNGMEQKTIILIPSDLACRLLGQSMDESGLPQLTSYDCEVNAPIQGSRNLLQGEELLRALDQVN

Row | SMILES | IC50 [1] [nM] | IC50 [2] [nM]
1 | COc1ccc([C@@H](O)[C@@H](C)Oc2ccc([C@H]3O[C@H](c4ccc(OC)c(OC)c4)[C@H](C)[C@H]3C)cc2OC)cc1OC | 20 | –
2 | COc1ccc([C@@H](O)[C@@H](C)Oc2ccc([C@@H]3CC[C@H](c4ccc(O[C@H](C)[C@H](O)c5ccc(OC)c(OC)c5)c(OC)c4)C3)cc2OC)cc1OC | – | 3
